Results reported in patent publication US9789110B2, “Diacylglycerol acyltransferase 2 inhibitors” (PFIZER INC., priority 2014, dated 2017).
Read-outs that look alike come from different tables or passages of the source.

Target: hDGAT2 (Homo sapiens (Human), UniProt Q96PD7)
Assay: In vitro DGAT2 assay, hDGAT2 membrane fraction, [14C]decanoyl-CoA scintillation readout
Format: biochemical
Details: read-out: IC50 for inhibition of DGAT2
Experimental: Recombinant baculovirus for the FLAG-tagged hDGAT2 was generated in SF9 insect cells using Bac-to-Bac baculovirus expression system (Invitrogen) according to the manufacturer's protocol. For the expression of hDGAT2, SF9 cells (20 L) grown in Sf90011 media were infected with hDGAT2 baculovirus at a multiplicity of infection of 1 in a Wave Bioreactor System 20/50P wave bag (GE Healthcare). After 40 hours of infection, the cells were then harvested by centrifugation at 5,000×g. The cell pellets were washed by resuspending in phosphate buffered saline (PBS) and collected by centrifugation at 5,000×g. The cell paste was flash frozen in liquid N2 and stored at −80° C. until needed. All operations below were at 4° C. unless otherwise noted. The cells were resuspended in lysis buffer (50 mM Tris-HCl, pH 8.0, 250 mM sucrose) including 1 mM ethylenediaminetetraacetic acid (EDTA) and the complete protease inhibitor cocktail (Roche Diagnostics) at a ratio of 3 ml buffer per 1 g cell paste. The cells were lysed by dounce homogenizer. The cell debris was removed by centrifugation at 1,000×g for 20 min, and the supernatant was centrifuged at 100,000×g for 1 hour. The resulting pellet was rinsed three times by filling ultracentrifuge tubes to the top with ice cold PBS before decanting. The washed pellet was resuspended with gentle stirring for 1 hour in lysis buffer containing 8 mM 3-[(3-cholamidopropyl)dimethylammonio]-1-propanesulfonate (CHAPS) at a ratio of 1 mL buffer per 1 g of original cell paste and centrifuged again at 100,000×g for 1 hour. The resulting supernatant was aliquotted, flash frozen in liquid N2, and stored at −80° C. until use.
For determination of IC50 values, the reactions were carried out in 384-well white Polyplates (Perkin Elmer) in a total volume of 20 μL. To […] compounds dissolved in 100% DMSO and spotted at the bottom of each well, 5 μL of 0.04% bovine serum albumin (BSA) (fatty acid free, Sigma Aldrich) was added and the mixture was incubated at room temperature for 20 minutes. To this mixture, 10 μL of hDGAT2 membrane fraction (0.01 mg/mL) diluted in 100 mM Hepes-NaOH, pH 7.4, 20 mM MgCl2 containing 200 nM methyl arachidonyl fluorophosphonate (Cayman Chemical; dried from ethyl acetate stock solution under argon gas and dissolved in DMSO as 5 mM stock) was added. After this mixture was preincubated at room temperature for 2 hours, DGAT2 reactions were initiated by the addition of 4 μL of substrates containing 30 μM [1-^14C]decanoyl-CoA (custom-synthesized by Perkin Elmer, 50 mCi/mmol) and 125 μM 1,2-didecanoyl-sn-glycerol (Avanti Polar Lipids) dissolved in 12.5% acetone. The reaction mixtures were incubated at room temperature for 40 min and the reactions were stopped by addition of 5 μL of 1% H3PO4. After the addition of 45 μL MicroScint-E (Perkin-Elmer), plates were sealed with Top Seal-A covers (Perkin-Elmer) and phase partitioning of substrates and products was achieved using a HT-91100 microplate orbital shaker (Big Bear Automation, Santa Clara, Calif.). Plates were centrifuged at 2,000×g for 1 min in an Allegra 6R Centrifuge (Beckman Coulter) and then were sealed again with fresh covers before reading in a 1450 Microbeta Wallac Trilux Scintillation Counter (Perkin Elmer). DGAT2 activity was measured by quantifying the generated product [^14C]tridecanoylglycerol in the upper organic phase.
Inhibitors were tested at eleven different concentrations to generate IC50 values for each compound.

[1] = geometric mean, FLAG-hDGAT2 membrane fraction, 2 h preincubation

hDGAT2, sequence (Q96PD7 whole entry): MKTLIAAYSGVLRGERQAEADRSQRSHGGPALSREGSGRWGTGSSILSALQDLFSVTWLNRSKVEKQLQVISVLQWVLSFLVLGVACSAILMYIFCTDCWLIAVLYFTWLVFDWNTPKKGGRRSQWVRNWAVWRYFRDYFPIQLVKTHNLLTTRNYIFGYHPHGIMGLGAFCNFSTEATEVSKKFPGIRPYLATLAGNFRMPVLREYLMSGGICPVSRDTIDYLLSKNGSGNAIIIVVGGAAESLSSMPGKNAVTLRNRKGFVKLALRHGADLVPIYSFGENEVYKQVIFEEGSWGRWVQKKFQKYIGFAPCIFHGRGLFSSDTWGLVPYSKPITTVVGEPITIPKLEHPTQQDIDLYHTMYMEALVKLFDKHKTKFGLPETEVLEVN

SMILES | IC50 [1] | IC50
CCOc1ccccc1O[C@@H]1CCCN(c2ncc(C(=O)N3C[C@H]4C[C@@H]3CO4)cn2)C1 [Example 19.14, ((1R,4R)-2-oxa-5-azabicyclo[2.2.1]heptan-5-yl)(2-((R)-3-(2-ethoxyphenoxy)piperidin-1-yl)pyrimidin-5-yl)methanone] | 21.5 nM | 
CCOc1ccccc1O[C@@H]1CCCN(c2ncc(C(=O)NCCC(=O)NC)cn2)C1 [Example 20.4, (R)-2-(3-(2-ethoxyphenoxy)piperidin-1-yl)-N-(3-(methylamino)-3-oxopropyl)pyrimidine-5-carboxamide] | 53.3 nM | 
CCOc1ccccc1O[C@@H]1CCCN(c2ncc(C(=O)N(C)C)cn2)C1 [Example 20.3, (R)-2-(3-(2-ethoxyphenoxy)piperidin-1-yl)-N,N-dimethylpyrimidine-5-carboxamide] | 104 nM | 
CCOc1ccccc1O[C@@H]1CCCN(c2ncc(C(=O)NCCCc3nn[nH]n3)cn2)C1 [Example 20.2, (R)-N-(3-(2H-tetrazol-5-yl)propyl)-2-(3-(2-ethoxyphenoxy)piperidin-1-yl)pyrimidine-5-carboxamide] | 431 nM | 
CCOc1ccccc1O[C@@H]1CCCN(c2ncc(C(=O)NC3CCC3)cn2)C1 [Example 19.22, (R)-N-cyclobutyl-2-(3-(2-ethoxyphenoxy)piperidin-1-yl)pyrimidine-5-carboxamide] | 10.7 nM | 
CCOc1ccccc1O[C@@H]1CCCN(c2ncc(C(=O)N3CCCCC3)cn2)C1 [Example 20.11, (R)-(2-(3-(2-ethoxyphenoxy)piperidin-1-yl)pyrimidin-5-yl)(piperidin-1-yl)methanone] |  | 15.7 nM
CCOc1ccccc1O[C@@H]1CCCN(c2ncc(C(=O)NCCS(C)(=O)=O)cn2)C1 [Example 19.8, (R)-2-(3-(2-ethoxyphenoxy)piperidin-1-yl)-N-(2-(methylsulfonyl)ethyl) pyrimidine-5-carboxamide] | 102 nM | 
CCOc1ccccc1O[C@@H]1CCCN(c2ncc(C(=O)N3CCOCC3)cn2)C1 [Example 19.1, (R)-(2-(3-(2-ethoxyphenoxy)piperidin-1-yl)pyrimidin-5-yl)(morpholino)methanone] | 22.6 nM | 
CCOc1ccccc1O[C@@H]1CCCN(c2ncc(C(=O)Nc3cncnc3)cn2)C1 [Example 19.20, (R)-2-(3-(2-ethoxyphenoxy)piperidin-1-yl)-N-(pyrimidin-5-yl)pyrimidine-5-carboxamide] | 33.3 nM | 
CCOc1ccccc1O[C@@H]1CCCN(c2ncc(C(=O)N3Cc4ccccc4C3)cn2)C1 [Example 19.12, (R)-(2-(3-(2-ethoxyphenoxy)piperidin-1-yl)pyrimidin-5-yl)(isoindolin-2-yl)methanone] | 1.4 nM | 
CCOc1ccccc1O[C@@H]1CCCN(c2ncc(C(=O)NCC3CC3)cn2)C1 [Example 19.4, (R)-N-(cyclopropylmethyl)-2-(3-(2-ethoxyphenoxy)piperidin-1-yl)pyrimidine-5-carboxamide] | 18.6 nM | 
CCOc1ccccc1O[C@@H]1CCCN(c2ncc(C(=O)NCc3cnccn3)cn2)C1 [Example 19.18, (R)-2-(3-(2-ethoxyphenoxy)piperidin-1-yl)-N-(pyrazin-2-ylmethyl)pyrimidine-5-carboxamide] | 22.5 nM | 
CCOc1ccccc1O[C@@H]1CCCN(c2ncc(C(=O)N[C@H]3CCc4ccccc43)cn2)C1 [Example 21.1, N-((S)-2,3-dihydro-1H-inden-1-yl)-2-((R)-3-(2-ethoxyphenoxy)piperidin-1-yl)pyrimidine-5-carboxamide] | 1.5 nM | 
CCOc1ccccc1O[C@@H]1CCCN(c2ncc(C(=O)NCc3ccccc3)cn2)C1 [Example 19.7, (R)-N-benzyl-2-(3-(2-ethoxyphenoxy)piperidin-1-yl)pyrimidine-5-carboxamide] | 4.3 nM | 
CCOc1ccccc1O[C@@H]1CCCN(c2ncc(C(=O)Nc3ccon3)cn2)C1 [Example 19.19, (R)-2-(3-(2-ethoxyphenoxy)piperidin-1-yl)-N-(isoxazol-3-yl)pyrimidine-5-carboxamide] | 11.1 nM | 
CCOc1ccccc1O[C@@H]1CCCN(c2ncc(C(=O)NCc3cccc(C(=O)O)c3OC)cn2)C1 [Example 14, (R)-3-((2-(3-(2-ethoxyphenoxy)piperidin-1-yl)pyrimidine-5-carboxamido)methyl)-2-methoxybenzoic acid] | 76.6 nM | 
CCOc1ccccc1O[C@@H]1CCCN(c2ncc(C(=O)N3CCC3)cn2)C1 [Example 19.11, (R)-azetidin-1-yl(2-(3-(2-ethoxyphenoxy)piperidin-1-yl)pyrimidin-5-yl)methanone] | 26.7 nM | 
CCOc1ccccc1O[C@@H]1CCCN(c2ncc(C(=O)N3CCCC3)cn2)C1 [Example 20.9, (R)-(2-(3-(2-ethoxyphenoxy)piperidin-1-yl)pyrimidin-5-yl)(pyrrolidin-1-yl)methanone] | 24.5 nM | 
CCOc1ccccc1O[C@@H]1CCCN(c2ncc(C(=O)N3CC(Oc4ccccc4)C3)cn2)C1 [Example 21.2, (R)-(2-(3-(2-ethoxyphenoxy)piperidin-1-yl)pyrimidin-5-yl)(3-phenoxyazetidin-1-yl)methanone] | 0.6 nM | 

Now from value to compound, other results behind:

IC50 [1] | SMILES | IC50
122 nM | CCOc1ccccc1O[C@@H]1CCCN(c2ncc(C(=O)N[C@@H]3CNC(=O)C3)cn2)C1 [Example 19.16, 2-((R)-3-(2-ethoxyphenoxy)piperidin-1-yl)-N-((S)-5-oxopyrrolidin-3-yl)pyrimidine-5-carboxamide] | 
14.3 nM | CCOc1ccccc1O[C@@H]1CCCN(c2ncc(C(=O)N3CC(OC)C3)cn2)C1 [Example 19.9, (R)-(2-(3-(2-ethoxyphenoxy)piperidin-1-yl)pyrimidin-5-yl)(3-methoxyazetidin-1-yl)methanone] | 
124 nM | CCOc1ccccc1O[C@@H]1CCCN(c2ncc(C(=O)NCC(=N)N)cn2)C1 [Example 19.5, (R)-N-(2-amino-2-iminoethyl)-2-(3-(2-ethoxyphenoxy)piperidin-1-yl)pyrimidine-5-carboxamide] | 
149 nM | CCOc1ccccc1O[C@@H]1CCCN(c2ncc(C(=O)NCCC(N)=O)cn2)C1 [Example 20.1, (R)-N-(3-amino-3-oxopropyl)-2-(3-(2-ethoxyphenoxy)piperidin-1-yl)pyrimidine-5-carboxamide] | 
46.7 nM | CCOc1ccccc1O[C@@H]1CCCN(c2ncc(C(=O)N[C@H]3CNC(=O)C3)cn2)C1 [Example 19.13, 2-((R)-3-(2-ethoxyphenoxy)piperidin-1-yl)-N-((R)-5-oxopyrrolidin-3-yl)pyrimidine-5-carboxamide] | 
144 nM | CCOc1ccccc1O[C@@H]1CCCN(c2ncc(C(=O)NCC(=O)NC)cn2)C1 [Example 20.6, (R)-2-(3-(2-ethoxyphenoxy)piperidin-1-yl)-N-(2-(methylamino)-2-oxoethyl)pyrimidine-5-carboxamide] | 
34.9 nM | CCOc1ccccc1O[C@@H]1CCCN(c2ncc(C(=O)N3Cc4cnn(C)c4C3)cn2)C1 [Example 19.6, (R)-(2-(3-(2-ethoxyphenoxy)piperidin-1-yl)pyrimidin-5-yl)(1-methyl-4,6-dihydropyrrolo[3,4-c]pyrazol-5(1H)-yl)methanone] | 
12.2 nM | CCOc1ccccc1O[C@@H]1CCCN(c2ncc(C(=O)NC(C)(C)CC(N)=O)cn2)C1 [Example 19.17, (R)-N-(4-amino-2-methyl-4-oxobutan-2-yl)-2-(3-(2-ethoxyphenoxy)piperidin-1-yl)pyrimidine-5-carboxamide] | 
7.9 nM | CCOc1ccccc1O[C@@H]1CCCN(c2ncc(C(=O)N3CC(F)(F)C3)cn2)C1 [Example 20.7, (R)-(3,3-difluoroazetidin-1-yl)(2-(3-(2-ethoxyphenoxy)piperidin-1-yl)pyrimidin-5-yl)methanone] | 
10.8 nM | CCOc1ccccc1O[C@@H]1CCCN(c2ncc(C(=O)NCc3ccon3)cn2)C1 [Example 19.3, (R)-2-(3-(2-ethoxyphenoxy)piperidin-1-yl)-N-(isoxazol-3-ylmethyl)pyrimidine-5-carboxamide] | 
